{"source": "patent US9295667B2", "about": "“Pharmaceutical composition for preventing or treating diabetes or fatty liver containing a CYP4A inhibitor as an active ingredient” (Korea Basic Science Institute, priority 2011, dated 2016)", "key": {"db/db mice [1]": {"tested_on": "db/db mice", "assay": "Level of blood glucose following 6 hours' fasting in db/db mice", "format": "in vivo", "details": "5 mg/kg/day intraperitoneal, 2 weeks", "description": "Male C57BL/6J and C57BL/KsJ-db/db mice were purchased from Japan SLC. HET0016 (5 mg/kg/day) and clofibrate (400 mg/kg/day) were injected intraperitoneally into eight (8)-week-old mice for two (2) weeks. Control littermate mice for HET0016 were treated with DMSO, while control littermate mice for clofibrate were treated with corn oil. […] The concentrations of blood glucose were measured using a One Touch Ultra glucometer (LifeScan, Inc.) before (0 min) and at 15, 30, 60, 90 and 120 min. after glucose injection. Livers isolated from 10-week-old mice were fixed in 10% neutral buffered formalin solution (Sigma), and paraffin sections were stained with hematoxylin-eosin."}, "C57BL/6J mice [2]": {"tested_on": "C57BL/6J mice", "assay": "Liver tissue sections, hematoxylin-eosin staining, C57BL/6J mice", "format": "in vivo", "details": "normal wild type C57BL/6J mice, 5 mg/kg/day intraperitoneal, 2 weeks", "description": "(§1) Male C57BL/6J and C57BL/KsJ-db/db mice were purchased from Japan SLC. HET0016 (5 mg/kg/day) and clofibrate (400 mg/kg/day) were injected intraperitoneally into eight (8)-week-old mice for two (2) weeks. Control littermate mice for HET0016 were treated with DMSO, while control littermate mice for clofibrate were treated with corn oil. Intraperitoneal glucose tolerance test (IPGTT) was performed after overnight fasting followed by intraperitoneal injection of lg/kg of glucose dissolved in PBS. The concentrations of blood glucose were measured using a One Touch Ultra glucometer (LifeScan, Inc.) before (0 min) and at 15, 30, 60, 90 and 120 min. after glucose injection. Livers isolated from 10-week-old mice were fixed in 10% neutral buffered formalin solution (Sigma), and paraffin sections were stained with hematoxylin-eosin."}, "[3]": {"tested_on": "human hepatoma HepG2 cells", "assay": "Tunicamycin-induced ER stress in HepG2 cells, Western blotting", "format": "cell-based", "details": "4 μg/ml tunicamycin, combined treatment HET0016, 6 hours", "description": "HepG2 cells were cultured in a Dulbecco's Modified Eagle Medium (DMEM, Gibco) Low Glucose supplemented with heat-inactivated 10% fetal bovine serum (FBS) and antibiotics at 37° C. in the presence of 5% moisturized CO2 and 95% air. The above cells were plated in a concentration of 3×10^4 cells/cm^2 and maintained in the cell culture medium for 24 hours prior to the following chemical processing. […] As a control, HepG2 cells were treated with DMSO.\n(§2) Proteins were denatured at 95° C., and separated by SDS-PAGE, followed by electroblotting on a membrane made of nitrocellulose (NC) or polyvinylidene difluoride (PVDF). After blocking in TBST (Tris-buffered Saline, 0.1% Tween-20) containing 5% non-fat milk (skim milk) or 5% bovine serum albumin (BSA), the membrane was incubated with labeled primary antibodies. Subsequently, the membrane was washed with TBST and further incubated with secondary antibodies coupled with horseradish peroxides. Protein blots were detected by using ECL kit and visualized by a luminescence imaging analyzer of LAS-4000 mini system and software (FujiFilm). Following antibodies were utilized: mouse anti-β-actin (sc-47778), rabbit anti-CYP4A (sc-98988, Santa Cruz Biotechnology), mouse anti-ATF6 (IMG-273, Imgenex), mouse anti-eIF2α (ab5369), rabbit anti-phospho-eIF2α Ser51 (ab32157), rabbit anti-IRE1 (ab37073, Abcam), rabbit anti-PERK(#3192), rabbit anti-phospho-PERK Thr980 (#3179), rabbit anti-BiP (#3177), mouse anti-CHOP (#2895), rabbit anti-SAPK/JNK (#9252), rabbit anti-phospho-SAPK/JNK […] (#9251), rabbit anti-Insulin receptor β (#3025), rabbit anti-phospho-Insulin receptor β Tyr1150/1151 (#3024), rabbit anti-Akt (#4691), rabbit anti-phospho-Akt Ser473 (#4060), rabbit anti-Bcl-2 (#2876), rabbit anti-Bax (#2772), rabbit anti-divided caspase-3 (#9664), rabbit anti-divided caspase-9 (#9509), rabbit anti-Bax (#2772, Cell Signaling Technology), rabbit anti-ERP72 (obtained from Dr. O. Y. Kwon, College of Medicine, Chungnam National University)."}, "[4]": {"tested_on": "cleaved Caspase-3 and -9, Bax and Bcl-2", "assay": "Apoptosis markers by Western blotting in liver of db/db mice", "format": "in vivo", "details": "5 mg/kg/day intraperitoneal, 2 weeks", "description": "as §1, §2"}, "[5]": {"tested_on": "insulin receptor (IR) and Akt", "assay": "In vivo insulin signaling (phosphorylation of IR and Akt) in liver of db/db mice", "details": "5 mg/kg/day intraperitoneal, 2 weeks", "description": "as §1\nProteins were denatured at 95° C., and separated by SDS-PAGE, followed by electroblotting on a membrane made of nitrocellulose (NC) or polyvinylidene difluoride (PVDF). After blocking in TBST (Tris-buffered Saline, 0.1% Tween-20) containing 5% non-fat milk (skim milk) or 5% bovine serum albumin (BSA), the membrane was incubated with labeled primary antibodies. […] Protein blots were detected by using ECL kit and visualized by a luminescence imaging analyzer of LAS-4000 mini system and software (FujiFilm). […]"}, "db/db mice [6]": {"tested_on": "db/db mice", "assay": "TBARS assay of MDA formation (lipid peroxidation) in liver of db/db mice", "format": "in vivo", "details": "5 mg/kg/day intraperitoneal, 2 weeks", "description": "(§3) While the mice were sacrificed, their blood was obtained with their hearts being punctured. The concentration of serum insulin was determined by using a commercial mouse serum insulin ELISA kit (Shibayagi Co., Ltd.) according to the manufacturer's instructions. Lipid peroxidation was measured by using OxiSelect™ TBARS Assay Kit (Cell Biolabs, Inc.) to quantify malondialdehyde (MDA), a natural by-product of lipid peroxidation in the liver homogenates. The level of triglyceride in the mice livers was measured by using Triglyceride Quantification Kit (Abcam)."}, "db/db mice [7]": {"tested_on": "db/db mice", "assay": "Intraperitoneal glucose tolerance test (IPGTT) in db/db mice", "format": "in vivo", "details": "5 mg/kg/day intraperitoneal, 2 weeks, 1 g/kg glucose", "description": "as §1"}, "db/db mice [8]": {"tested_on": "db/db mice", "assay": "Serum insulin ELISA in db/db mice", "format": "in vivo", "details": "5 mg/kg/day intraperitoneal, 2 weeks", "description": "as §3"}, "C57BL/6J mice [9]": {"tested_on": "C57BL/6J mice", "assay": "Liver triglyceride (TG) level in C57BL/6J mice", "format": "in vivo", "details": "normal wild type C57BL/6J mice, 5 mg/kg/day intraperitoneal, 2 weeks", "description": "as §3"}, "C57BL/6J mice [10]": {"tested_on": "C57BL/6J mice", "assay": "IPGTT in normal C57BL/6J mice", "format": "in vivo", "details": "normal wild type C57BL/6J mice, same doses as db/db mice (5 mg/kg/day intraperitoneal, 2 weeks)", "description": "as §1"}, "db/db mice [11]": {"tested_on": "db/db mice", "assay": "Liver tissue sections, hematoxylin-eosin staining, db/db mice", "format": "in vivo", "details": "5 mg/kg/day intraperitoneal, 2 weeks", "description": "as §1"}, "[12]": {"tested_on": "ER stress markers (PERK, phospho-eIF2α, CHOP, phospho-JNK)", "assay": "Western blotting of ER stress markers in liver tissues of db/db mice", "format": "in vivo", "details": "5 mg/kg/day intraperitoneal, 2 weeks", "description": "as §1\nLiver microsomes were prepared from fresh mice livers by applying a slight modification to the above described methods. Separated livers were thoroughly sprinkled with 1.15% KCl solution. Subsequently, the livers were homogenized with 4 times volume of a homogenizing buffer (0.1 M Tris-HCl, pH 7.4; 0.1 M KCl; […], pH 7.5; 25 μM butylated hydroxyltoluene). In order to remove un-destructed cells, nuclei and mitochondria, the obtained homogenate was centrifuged in a low-powered centrifugation (1,000× g, 4° C. for 15 min.) The obtained supernatant was then centrifuged in a higher powered centrifugation (100,000× g, 4° C. for 60 min.), resulting in the precipitation of microsomes. Pellets of compactly packed microsomes were re-suspended in 3 ml of an ice-cooled pyrophosphate buffer (0.1 M potassium pyrophosphate; 1 mM EDTA, pH 7.5; 20 μM butylated hydroxyltoluene) by using a homogenizer, followed by further centrifugation at 100,000× g, 4° C. for 60 min. The washed microsome pellets were finally suspended in 2 ml of an ice-cooled microsome buffer (10 mM Tris-HCl, pH 7.4; 1 mM EDTA, pH 7.5; 20% glycerol).\nProteins were denatured at 95° C., and separated by SDS-PAGE, followed by electroblotting on a membrane made of nitrocellulose (NC) or polyvinylidene difluoride (PVDF). After blocking in TBST (Tris-buffered Saline, 0.1% Tween-20) containing 5% non-fat milk (skim milk) or 5% bovine serum albumin (BSA), the membrane was incubated with labeled primary antibodies. Subsequently, the membrane was washed with TBST and further incubated with secondary antibodies coupled with horseradish peroxides. Protein blots were detected by using ECL kit and visualized by a luminescence imaging analyzer of LAS-4000 mini system and software (FujiFilm). […]"}, "C57BL/6J mice [13]": {"tested_on": "C57BL/6J mice", "assay": "Serum insulin ELISA in normal C57BL/6J mice", "format": "in vivo", "details": "normal wild type C57BL/6J mice, 5 mg/kg/day intraperitoneal, 2 weeks", "description": "as §3"}}, "data": [{"smiles": "CCCCc1ccc(N=CNO)c(C)c1", "note": "[HET0016, N-hydroxy-N′-(4-butyl-2-methylphenyl)-formamidine]", "values": [{"measurement": "level of blood glucose", "setting": "db/db mice [1]", "result": "decreased"}, {"measurement": "hepatic physiology (liver sections)", "setting": "C57BL/6J mice [2]", "result": "no differences"}, {"measurement": "expression of PERK", "setting": "[3]", "result": "remarkably down-regulate"}, {"measurement": "expression of phospho-JNK", "setting": "[3]", "result": "remarkably down-regulate"}, {"measurement": "expression of phospho-eIF2α", "setting": "[3]", "result": "remarkably down-regulate"}, {"measurement": "apoptosis of the diabetic liver tissues", "setting": "[4]", "result": "inhibited"}, {"measurement": "expression of Bax", "setting": "[4]", "result": "suppressed"}, {"measurement": "expression of Bcl-2", "setting": "[4]", "result": "increased"}, {"measurement": "level of active forms of caspase-3 and -9", "setting": "[4]", "result": "reduced"}, {"measurement": "phosphorylation of Akt", "setting": "[5]", "result": "increased"}, {"measurement": "phosphorylation of insulin receptor (IR)", "setting": "[5]", "result": "increased"}, {"measurement": "increase of hepatic lipid peroxidation (MDA)", "setting": "db/db mice [6]", "result": "notably reduced"}, {"measurement": "insulin resistance (IPGTT)", "setting": "db/db mice [7]", "result": "significantly improved"}, {"measurement": "level of serum insulin", "setting": "db/db mice [8]", "result": "notably reduced"}, {"measurement": "hepatic steatosis (level of TG)", "setting": "C57BL/6J mice [9]", "result": "no differences"}, {"measurement": "insulin resistance (IPGTT)", "setting": "C57BL/6J mice [10]", "result": "not altered"}, {"measurement": "severe hepatic steatosis", "setting": "db/db mice [11]", "result": "relieved"}, {"measurement": "activation of JNK", "setting": "[12]", "result": "markedly decreased"}, {"measurement": "activity of PERK downstream signaling (phosphorylation status of eIF2α, expression level of CHOP)", "setting": "[12]", "result": "reduced"}, {"measurement": "expression of Cyp4a", "setting": "[12]", "result": "not changed"}, {"measurement": "expression of PERK", "setting": "[12]", "result": "reduced"}, {"measurement": "serum insulin level", "setting": "C57BL/6J mice [13]", "result": "no differences"}]}]}
